Reference: publication PMC8566089 (Bioorganic Chemistry, 2021)
Read-outs that look alike come from different tables or passages of the source.

Assays:
[1] = test system: A431 (squamous skin) cancer cell line; test: MTT antiproliferative assay, A431; assay type: cell-based; settings: for IC50: Homo sapiens, A-431, 72 h, read-out: IC50 ± SE, A431; for SI (selectivity index), A431: IC50 of RPE1 relative to that of A431
[2] = test system: MCF7 (breast) cancer cell line; test: MTT antiproliferative assay, MCF7; assay type: cell-based; settings: for IC50: Homo sapiens, MCF7, 72 h, read-out: IC50 ± SE, MCF7; for SI (selectivity index), MCF7: IC50 of RPE1 relative to that of MCF7
[3] = test system: HCT116 (colon) cancer cell line; test: MTT antiproliferative assay, HCT116; assay type: cell-based; settings: for IC50: Homo sapiens, HCT-116, 72 h, read-out: IC50 ± SE, HCT116; for SI (selectivity index), HCT116: IC50 of RPE1 relative to that of HCT116
[4] = test system: RPE1 (normal human immortalized retinal pigment epithelial cell line); test: MTT assay against normal RPE1 cells; assay type: cell-based; settings: RPE-1, read-out: IC50 ± SE, RPE1
[5] = biological target: T1, VEGFR-2 (Homo sapiens, UniProt P35968); test: VEGFR-2 Western blot in MCF7; assay type: cell-based; settings: for VEGFR2 MCF7 % Inhibition: Western blot at MTT-IC50; for VEGFR2 MCF7 RQ (relative quantification): Western blot at MTT-IC50, control RQ 3.725
[6] = biological target: T1, VEGFR-2; test: VEGFR-2 Western blot in HCT116; assay type: cell-based; settings: for VEGFR2 HCT116 % Inhibition: Western blot at MTT-IC50; for VEGFR2 HCT116 RQ (relative quantification): Western blot at MTT-IC50, control RQ 3.817
[7] = biological target: T2, EGFR (Homo sapiens, UniProt P00533); test: EGFR Western blot in MCF7; assay type: cell-based; settings: for EGFR MCF7 % Inhibition: Western blot at MTT-IC50; for EGFR MCF7 RQ (relative quantification): Western blot at MTT-IC50, control RQ 4.226
[8] = biological target: T2, EGFR; test: EGFR Western blot in HCT116; assay type: cell-based; settings: for EGFR HCT116 % Inhibition: Western blot at MTT-IC50; for EGFR HCT116 RQ (relative quantification): Western blot at MTT-IC50, control RQ 4.0382
[9] = biological target: T3, COX-1 (Ovis aries, UniProt P05979); test: COX-1 inhibitor screening kit; assay type: biochemical
T3 sequence (P05979 25-600): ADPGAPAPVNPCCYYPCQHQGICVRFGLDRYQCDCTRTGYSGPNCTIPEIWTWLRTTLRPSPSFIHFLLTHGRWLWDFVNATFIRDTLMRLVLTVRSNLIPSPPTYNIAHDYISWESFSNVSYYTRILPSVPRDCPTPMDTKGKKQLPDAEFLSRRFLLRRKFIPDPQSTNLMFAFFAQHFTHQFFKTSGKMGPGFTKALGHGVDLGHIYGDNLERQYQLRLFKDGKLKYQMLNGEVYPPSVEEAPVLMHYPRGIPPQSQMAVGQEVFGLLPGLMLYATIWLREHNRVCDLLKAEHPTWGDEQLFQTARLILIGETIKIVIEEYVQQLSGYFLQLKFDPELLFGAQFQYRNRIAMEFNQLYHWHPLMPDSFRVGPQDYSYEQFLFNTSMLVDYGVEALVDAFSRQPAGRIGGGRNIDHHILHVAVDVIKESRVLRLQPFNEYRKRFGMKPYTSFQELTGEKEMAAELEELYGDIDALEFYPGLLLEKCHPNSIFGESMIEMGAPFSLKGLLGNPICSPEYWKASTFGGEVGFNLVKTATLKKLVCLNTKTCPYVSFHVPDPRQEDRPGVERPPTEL

[10] = biological target: T4, COX-2 (Homo sapiens, UniProt P35354); test: COX-2 inhibitor screening kit; assay type: biochemical
T4 sequence (P35354 18-604): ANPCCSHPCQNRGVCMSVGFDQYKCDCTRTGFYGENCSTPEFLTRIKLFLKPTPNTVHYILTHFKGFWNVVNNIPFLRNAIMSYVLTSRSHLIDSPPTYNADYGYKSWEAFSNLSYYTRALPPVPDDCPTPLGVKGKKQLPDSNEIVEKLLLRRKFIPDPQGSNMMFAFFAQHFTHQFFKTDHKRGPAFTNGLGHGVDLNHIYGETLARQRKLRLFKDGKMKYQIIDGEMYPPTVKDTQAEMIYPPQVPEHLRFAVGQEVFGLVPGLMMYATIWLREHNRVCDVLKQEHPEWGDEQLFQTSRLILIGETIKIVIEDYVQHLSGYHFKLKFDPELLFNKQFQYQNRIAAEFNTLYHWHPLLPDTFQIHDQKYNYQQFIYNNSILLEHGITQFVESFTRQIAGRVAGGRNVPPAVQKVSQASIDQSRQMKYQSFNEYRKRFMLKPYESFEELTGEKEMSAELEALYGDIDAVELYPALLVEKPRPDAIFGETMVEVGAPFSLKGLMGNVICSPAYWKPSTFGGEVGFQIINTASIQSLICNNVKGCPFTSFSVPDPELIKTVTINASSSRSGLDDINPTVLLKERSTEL

[11] = test system: SARS-CoV-2 (hCoV-19/Egypt/NRC-03/2020); settings: SARS-CoV-2 / VERO-E6
[12] = test system: HCT116 (colon cancer cell line); test: PI-flow cytometry cell cycle analysis; assay type: cell-based
[13] = test system: HCT116 (colon cancer cell line); test: Annexin V-FITC apoptosis/necrosis study; assay type: cell-based; settings: at MTT-IC50 of the agent

T1 sequence (P35968 20-1356): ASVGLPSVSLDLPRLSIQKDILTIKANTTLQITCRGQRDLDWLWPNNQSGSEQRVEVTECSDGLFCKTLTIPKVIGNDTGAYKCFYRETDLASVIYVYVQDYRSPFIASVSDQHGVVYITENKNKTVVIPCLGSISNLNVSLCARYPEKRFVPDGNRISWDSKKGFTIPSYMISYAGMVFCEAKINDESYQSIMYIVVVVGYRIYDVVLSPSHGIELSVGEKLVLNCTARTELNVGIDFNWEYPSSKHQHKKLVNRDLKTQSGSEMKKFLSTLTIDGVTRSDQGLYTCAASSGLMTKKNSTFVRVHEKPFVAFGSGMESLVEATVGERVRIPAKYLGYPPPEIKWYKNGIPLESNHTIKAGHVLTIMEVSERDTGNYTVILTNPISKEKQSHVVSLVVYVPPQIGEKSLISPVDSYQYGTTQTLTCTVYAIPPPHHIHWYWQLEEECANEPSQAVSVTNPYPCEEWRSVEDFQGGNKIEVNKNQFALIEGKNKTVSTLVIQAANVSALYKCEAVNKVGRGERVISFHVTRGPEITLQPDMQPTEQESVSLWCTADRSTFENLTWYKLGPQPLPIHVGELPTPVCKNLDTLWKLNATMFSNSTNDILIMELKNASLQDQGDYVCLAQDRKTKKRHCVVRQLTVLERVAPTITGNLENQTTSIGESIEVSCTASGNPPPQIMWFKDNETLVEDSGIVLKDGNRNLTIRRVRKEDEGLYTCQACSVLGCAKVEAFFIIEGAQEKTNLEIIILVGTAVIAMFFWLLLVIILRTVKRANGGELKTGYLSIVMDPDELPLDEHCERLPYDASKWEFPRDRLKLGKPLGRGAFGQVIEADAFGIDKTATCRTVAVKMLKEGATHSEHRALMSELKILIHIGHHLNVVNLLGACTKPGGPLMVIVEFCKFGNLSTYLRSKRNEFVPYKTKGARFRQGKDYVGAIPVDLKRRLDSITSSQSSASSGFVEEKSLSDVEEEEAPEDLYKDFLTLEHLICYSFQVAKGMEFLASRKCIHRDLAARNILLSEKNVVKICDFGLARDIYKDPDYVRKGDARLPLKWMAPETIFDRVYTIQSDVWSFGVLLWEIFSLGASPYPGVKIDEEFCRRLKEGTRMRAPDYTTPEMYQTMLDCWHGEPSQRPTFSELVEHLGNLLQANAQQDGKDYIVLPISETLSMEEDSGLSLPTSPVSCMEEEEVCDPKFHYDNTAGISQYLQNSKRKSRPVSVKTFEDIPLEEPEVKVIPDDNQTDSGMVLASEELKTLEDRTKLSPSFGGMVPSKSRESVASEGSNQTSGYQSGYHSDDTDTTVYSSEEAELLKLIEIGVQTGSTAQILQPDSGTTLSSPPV
T2 sequence (P00533 25-1210): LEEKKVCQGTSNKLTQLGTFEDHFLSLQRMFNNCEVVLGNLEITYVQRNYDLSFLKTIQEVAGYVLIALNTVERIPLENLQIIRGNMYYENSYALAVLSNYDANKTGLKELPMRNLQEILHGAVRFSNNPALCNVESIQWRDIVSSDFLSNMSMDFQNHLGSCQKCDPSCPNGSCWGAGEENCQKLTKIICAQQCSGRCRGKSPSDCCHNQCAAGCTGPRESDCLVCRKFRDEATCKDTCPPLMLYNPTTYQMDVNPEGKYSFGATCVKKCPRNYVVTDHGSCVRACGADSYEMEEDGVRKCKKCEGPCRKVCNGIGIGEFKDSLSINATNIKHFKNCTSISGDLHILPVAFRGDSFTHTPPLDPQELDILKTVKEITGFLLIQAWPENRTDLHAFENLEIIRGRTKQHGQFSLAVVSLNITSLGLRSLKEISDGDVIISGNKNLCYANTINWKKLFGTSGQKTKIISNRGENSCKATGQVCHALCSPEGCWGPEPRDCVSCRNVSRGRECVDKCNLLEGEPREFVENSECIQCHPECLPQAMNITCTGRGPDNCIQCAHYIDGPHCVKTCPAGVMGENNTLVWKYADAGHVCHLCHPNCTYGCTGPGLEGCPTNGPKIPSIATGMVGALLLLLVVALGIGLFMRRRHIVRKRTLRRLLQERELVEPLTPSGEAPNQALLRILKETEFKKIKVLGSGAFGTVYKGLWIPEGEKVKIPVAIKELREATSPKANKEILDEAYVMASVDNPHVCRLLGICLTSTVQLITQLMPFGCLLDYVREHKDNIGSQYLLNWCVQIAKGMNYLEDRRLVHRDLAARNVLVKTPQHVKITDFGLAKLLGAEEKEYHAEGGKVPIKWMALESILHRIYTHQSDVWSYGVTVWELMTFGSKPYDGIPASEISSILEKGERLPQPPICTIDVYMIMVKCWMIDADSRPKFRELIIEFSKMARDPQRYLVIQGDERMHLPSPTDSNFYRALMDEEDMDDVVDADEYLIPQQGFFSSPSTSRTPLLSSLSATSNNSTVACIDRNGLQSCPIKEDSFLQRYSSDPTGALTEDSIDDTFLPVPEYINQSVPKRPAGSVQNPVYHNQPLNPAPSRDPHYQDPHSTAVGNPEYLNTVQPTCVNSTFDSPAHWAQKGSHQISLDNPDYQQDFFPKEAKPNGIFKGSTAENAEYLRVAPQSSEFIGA

Row | SMILES | IC50 [1] [µM] | SI (selectivity index), A431 [1] | IC50 [2] [µM] | SI (selectivity index), MCF7 [2] | IC50 [3] [µM] | SI (selectivity index), HCT116 [3] | IC50 [4] [µM] | VEGFR2 MCF7 % Inhibition [5] [%] | VEGFR2 MCF7 RQ (relative quantification) [5] | VEGFR2 HCT116 % Inhibition [6] [%] | VEGFR2 HCT116 RQ (relative quantification) [6] | EGFR MCF7 % Inhibition [7] [%] | EGFR MCF7 RQ (relative quantification) [7] | EGFR HCT116 % Inhibition [8] [%] | EGFR HCT116 RQ (relative quantification) [8] | IC50 [9] [µM] | IC50 [10] [µM] | SI = IC50(COX-1)/IC50(COX-2) [10] | SI = CC50/IC50 [11] | also measured
1 | CC(=O)Oc1ccccc1C(=O)N1C/C(=C\c2ccc(C)cc2)C(=O)/C(=C/c2ccc(C)cc2)C1 [Compound 5e, 2-[3,5-Bis((E)-4-methylbenzylidene)-4-oxopiperidine-1-carbonyl]phenyl acetate] | 0.639 ± 0.07 | 15.5 | 6 ± 0.5 | 1.65 | 2.56 ± 0.18 | 3.87 | 9.89 ± 0.75 | 40.9 | 2.202 | 42.1 | 2.209 | 59.6 | 1.707 | 58.8 | 1.664 | 0.249 | 1.56 | 0.160 | 37.4 | –
2 | CC(=O)Oc1ccc(Cl)cc1C(=O)N1C/C(=C\c2cccs2)C(=O)/C(=C/c2cccs2)C1 [Compound 5p, 4-Chloro-2-[(3E,5E)-4-oxo-3,5-bis(thiophen-2-ylmethylene)piperidine-1-carbonyl]phenyl acetate] | 6.25 ± 0.49 | 3.2 | 6.25 ± 0.61 | 3.18 | 6.38 ± 0.44 | 3.12 | 19.9 ± 1.21 | 40.7 | 2.209 | 39.6 | 2.304 | 59.0 | 1.731 | 56.3 | 1.763 | 0.285 | 0.138 | 2.065 | 233.6 | –
3 | COc1ccc(/C=C2\CN(C(=O)c3cc(Cl)ccc3OC(C)=O)C/C(=C\c3ccc(OC)c(OC)c3)C2=O)cc1OC [Compound 5n, 2-[3,5-Bis((E)-3,4-dimethoxybenzylidene)-4-oxopiperidine-1-carbonyl]-4-chlorophenyl acetate] | 0.444 ± 0.04 | 17.7 | 4.39 ± 0.4 | 1.79 | 1.49 ± 0.17 | 5.30 | 7.87 ± 0.62 | 37.2 | 2.338 | 37.4 | 2.389 | 56.8 | 1.825 | 60.1 | 1.610 | 0.163 | 0.361 | 0.452 | 88.9 | –
4 | COc1ccc(/C=C2\CN(C(=O)c3cc(Cl)ccc3OC(C)=O)C/C(=C\c3ccc(OC)cc3)C2=O)cc1 [Compound 5m, 2-[3,5-Bis((E)-4-methoxybenzylidene)-4-oxopiperidine-1-carbonyl]-4-chlorophenyl acetate] | 3.81 ± 0.29 | 1.9 | 5.06 ± 0.45 | 1.43 | 5.94 ± 0.46 | 1.22 | 7.23 ± 0.51 | 47.2 | 1.966 | 70.4 | 1.13 | 62.4 | 1.59 | 68.5 | 1.273 | 0.146 | 0.319 | 0.452–0.467 | 138.7 | SI = IC50(COX-1)/IC50(COX-2) ([10]; listed as 5 m): 0.458
5 | CC(=O)Oc1ccccc1C(=O)N1C/C(=C\c2ccc(Br)cc2)C(=O)/C(=C/c2ccc(Br)cc2)C1 [Compound 5d, 2-[3,5-Bis((E)-4-bromobenzylidene)-4-oxopiperidine-1-carbonyl]phenyl acetate] | 0.986 ± 0.08 | 9.8 | 4.58 ± 0.39 | 2.11 | 3.6 ± 0.29 | 2.69 | 9.68 ± 0.57 | 48.7 | 1.91 | 60.7 | 1.5 | 64.0 | 1.52 | 65.9 | 1.377 | 0.134 | 1.11 | 0.121 | 54.7 | –
6 | CC(=O)Oc1ccccc1C(=O)N1C/C(=C\c2ccccc2)C(=O)/C(=C/c2ccccc2)C1 [Compound 5a, 2-[3,5-Di((E)-benzylidene)-4-oxopiperidine-1-carbonyl]phenyl acetate] | 4.49 ± 0.41 | 2.4 | 4.74 ± 0.38 | 2.25 | 4.72 ± 0.42 | 2.25 | 10.6 ± 1.04 | 64.6 | 1.32 | 67.5 | 1.24 | 90.3 | 0.41 | 69.3 | 1.24 | 0.249 | 1.55 | 0.161 | 18.5 | –
7 | CCN(CC)CCNC(=O)c1c(C)[nH]c(/C=C2\C(=O)Nc3ccc(F)cc32)c1C [Sunitinib, reference compound] | – | – | – | – | – | – | – | – | – | – | – | – | – | – | – | – | – | – | – | phase of cell cycle arrest ([12]; PI-flow cytometry): S-phase; DNA content (%) G0-G1 ([12]; at MTT-IC50 of the agent): 46.18%; DNA content (%) G2/M ([12]; at MTT-IC50 of the agent): 7.59%; DNA content (%) Pre-G1 ([12]; at MTT-IC50 of the agent): 31.69%; DNA content (%) S ([12]; at MTT-IC50 of the agent): 46.23%; Apoptosis (%) Early [13]: 2.54%; Apoptosis (%) Late [13]: 21.69%; Apoptosis (%) Total [13]: 31.69%; Necrosis (%) [13]: 7.46%
8 | CC(=O)Oc1ccccc1C(=O)N1C/C(=C\c2ccc(F)cc2)C(=O)/C(=C/c2ccc(F)cc2)C1 [Compound 5b, 2-[3,5-Bis((E)-4-fluorobenzylidene)-4-oxopiperidine-1-carbonyl]phenyl acetate] | 2.12 ± 0.19 | 3.9 | 5.76 ± 0.47 | 1.44 | 5.1 ± 0.51 | 1.63 | 8.3 ± 0.71 | 57.0 | 1.6 | 70.9 | 1.11 | 83.7 | 0.69 | 72.8 | 1.1 | 0.146 | 0.442 | 0.330 | 22.7 | –
